# According to patent publication US10329270B2, “Heteroaryl compounds as BTK inhibitors and uses thereof” (Merck Patent GmbH, priority 2013, dated 2019):
# Structures can show the parent of a compound that is named as a salt.
# Molecular target: T1, full-length human BTK (Homo sapiens, UniProt Q06187)
# T1 construct: 2.5× stocks of full-length human BTK (08-080); purchased CarnaBio USA, Inc., Natick, Mass; 08-080
# Test: Assay A: BTK IC50 Enzyme Assay (microfluidic off-chip mobility shift kinase assay)
# Type: biochemical
# Settings: not given
# How it was run: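 Off-chip microfluidic mobility shift assay with full-length human BTK; phosphorylated and unphosphorylated peptide substrate were separated by charge/mass on a LabChip 3000.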
# T1 sequence (Q06187 whole entry): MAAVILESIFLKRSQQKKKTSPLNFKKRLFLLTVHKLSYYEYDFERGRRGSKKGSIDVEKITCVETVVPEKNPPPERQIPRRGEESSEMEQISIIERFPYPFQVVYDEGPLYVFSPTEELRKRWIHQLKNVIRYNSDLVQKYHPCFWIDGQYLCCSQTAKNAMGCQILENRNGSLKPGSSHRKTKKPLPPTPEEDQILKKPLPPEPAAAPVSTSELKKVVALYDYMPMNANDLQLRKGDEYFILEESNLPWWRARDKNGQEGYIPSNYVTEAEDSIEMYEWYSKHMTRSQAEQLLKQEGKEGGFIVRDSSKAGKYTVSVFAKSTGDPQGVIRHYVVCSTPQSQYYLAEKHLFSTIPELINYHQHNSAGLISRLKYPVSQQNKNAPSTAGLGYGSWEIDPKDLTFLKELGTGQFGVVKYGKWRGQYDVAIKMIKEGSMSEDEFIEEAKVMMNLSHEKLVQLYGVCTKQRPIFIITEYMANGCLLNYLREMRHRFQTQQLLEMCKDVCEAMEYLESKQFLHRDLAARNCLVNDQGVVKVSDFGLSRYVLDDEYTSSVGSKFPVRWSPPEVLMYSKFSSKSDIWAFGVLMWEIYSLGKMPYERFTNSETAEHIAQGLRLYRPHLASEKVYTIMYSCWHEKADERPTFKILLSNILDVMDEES
row,IC50 [nM],Compound
1,100 to 1000,"C=CC(=O)N1CCC(F)(CNc2ncc(C(N)=O)c(Oc3ccc(Oc4ccccc4)cc3)n2)CC1 [Compound 194, 2-(((1-acryloyl-4-fluoropiperidin-4-yl)methyl)amino)-4-(4-phenoxyphenoxy)pyrimidine-5-carboxamide]"

# Same assay, conditions: full-length human BTK, kinKDR peptide substrate, incubated 90 min at 27 C; read-out: Assay A (Time Dependent BTK Enzyme Assay IC50)
row,Compound,IC50 [nM]
1,"C=CC(=O)N1CCC=C(c2cnc(Oc3ccc(Oc4ccccc4)cc3)c(C(N)=O)c2)C1 [Compound 123, 1′-Acryloyl-6-(4-phenoxy-phenoxy)-1′,2′,5′,6′-tetrahydro-[3,3′]bipyridinyl-5-carboxylic acid amide]",< 100
2,"C=CC(=O)N1C[C@@H]2C[C@H]1CN2c1ccc(C(N)=O)c(Nc2cccnc2)n1 [Compound 15, 6-((1S,4S)-5-acryloyl-2,5-diazabicyclo[2.2.1]heptan-2-yl)-2-(pyridin-3-ylamino)nicotinamide]",< 100
3,"C=CC(=O)N1CCC(c2ccc(C(N)=O)c(Nc3ccc(C(=O)N4CCN(C(=O)CCCCN)CC4)cc3)n2)CC1 [Compound 29, 1′-Acryloyl-6-{4-[4-(5-amino-pentanoyl)-piperazine-1-carbonyl]-phenylamino}-1′,2′,3′,4′,5′,6′-hexahydro-[2,4′]bipyridinyl-5-carboxylic acid amide hydrochloride]",< 100
4,"C=CC(=O)N1CCCC(c2ccc(C(N)=O)c(Oc3ccc(Oc4ccccc4)cc3)n2)C1 (stereo not shown) [Compound 87, 1′-Acryloyl-6-(4-phenoxy-phenoxy)-1′,2′,3′,4′,5′,6′-hexahydro-[2,3′]bipyridinyl-5-carboxylic acid amide]",100 to 1000
5,"C=CC(=O)N[C@H]1CCN(c2cc(Oc3ccc(Oc4ccccc4)cc3)c(C(N)=O)cn2)C1 [Compound 109, 6-((S)-3-Acryloylamino-pyrrolidin-1-yl)-4-(4-phenoxy-phenoxy)-nicotinamide]",< 100
6,"C=CC(=O)N[C@H]1CCN(c2ccc(C(N)=O)c(Oc3ccc(OCc4ccccc4)cc3)n2)C1 [Compound 90, (S)-6-(3-acrylamidopyrrolidin-1-yl)-2-(4-(benzyloxy)phenoxy)nicotinamide]",100 to 1000
7,"C=CC(=O)N1C2CCC1CN(c1ncc(C(N)=O)c(Oc3ccc(Oc4ccccc4)cc3)n1)C2 [Compound 149, 2-(8-Acryloyl-3,8-diaza-bicyclo[3.2.1]oct-3-yl)-4-(4-phenoxy-phenoxy)-pyrimidine-5-carboxylic acid amide]",< 100
8,"C=CC(=O)N1CCC=C(c2ccc(C(N)=O)c(Oc3ccc(Oc4ccccc4)cc3)n2)C1 [Compound 83, 1′-Acryloyl-6-(4-phenoxy-phenoxy)-1′,2′,5′,6′-tetrahydro-[2,3′]bipyridinyl-5-carboxylic acid amide]",< 100
9,"C=CC(=O)N[C@H]1CCN(c2cc(Oc3ccc(Oc4ccc(C)cc4)cc3)c(C(N)=O)cn2)C1 [Compound 114, (S)-6-(3-acrylamidopyrrolidin-1-yl)-4-(4-(p-tolyloxy)phenoxy)nicotinamide]",100 to 1000
10,"C=CC(=O)NCc1cncc(-c2ccc(C(N)=O)c(Oc3ccc(Oc4ccccc4)cc3)n2)c1 [Compound 84, 5′-(acrylamidomethyl)-6-(4-phenoxyphenoxy)-[2,3′-bipyridine]-5-carboxamide]",< 100
11,"C=CC(=O)N[C@H]1CCN(c2ccc(C(N)=O)c(Oc3ccc(Oc4ccc(C)cc4)cc3)n2)C1 [Compound 85, (S)-6-(3-acrylamidopyrrolidin-1-yl)-2-(4-(p-tolyloxy)phenoxy)nicotinamide]",100 to 1000
12,C=CC(=O)N1C[C@@H]2C[C@H]1CN2c1ccc(C(N)=O)c(Nc2ccc(C)nc2)n1 [Compound 8],< 100
13,"C=CC(=O)N[C@H]1CCN(c2ccc(C(N)=O)c(Nc3ccc(N4CC(C)OC(C)C4)c(F)c3)n2)C1 (stereo partly drawn) [Compound 27, 6-((S)-3-Acryloylamino-pyrrolidin-1-yl)-2-[4-(2,6-dimethyl-morpholin-4-yl)-3-fluoro-phenylamino]-nicotinamide]",< 100
14,"C=CC(=O)N[C@H]1CCN(c2ccc(C(N)=O)c(Nc3ccc(NC(=O)C(C)(C)C)cc3)n2)C1 [Compound 59, 6-((S)-3-Acryloylamino-pyrrolidin-1-yl)-2-[4-(2,2-dimethyl-propionylamino)-phenylamino]-nicotinamide]",100 to 1000
15,"C=CC(=O)N[C@H]1CCN(c2ccc(C(N)=O)c(Oc3ccc(C(=O)Nc4ccccc4)cc3)n2)C1 [Compound 96, (S)-6-(3-acrylamidopyrrolidin-1-yl)-2-(4-(phenylcarbamoyl)phenoxy)nicotinamide]",1000 to 5000
16,"C=CC(=O)N1CCC(c2ccc(C(N)=O)c(Nc3ccc(N4C[C@@H](C)O[C@@H](C)C4)nc3)n2)CC1 [Compound 32, 1′-Acryloyl-6-[6-((2R,6S)-2,6-dimethyl-morpholin-4-yl)-pyridin-3-ylamino]-1′,2′,3′,4′,5′,6′-hexahydro-[2,4′]bipyridinyl-5-carboxylic acid amide]",< 100
17,"C=CC(=O)N[C@H]1CCN(c2ncc(C(N)=O)c(Nc3ccc(C(=O)N4CCOCC4)cc3)n2)C1 [Compound 140, 2-((S)-3-Acryloylamino-pyrrolidin-1-yl)-4-[4-(morpholine-4-carbonyl)-phenylamino]-pyrimidine-5-carboxylic acid amide]",< 100
18,"C=CC(=O)N[C@@H]1CCCN(c2ccc(C(N)=O)c(Nc3ccc(CCN4CCCC4)cc3)n2)C1 [Compound 56, (R)-3-Acryloylamino-6′-[4-(2-pyrrolidin-1-yl-ethyl)-phenylamino]-3,4,5,6-tetrahydro-2H-[1,2′]bipyridinyl-5′-carboxylic acid amide]",< 100
19,"C=CC(=O)N1CCC(c2ccc(C(N)=O)c(Oc3ccc(Oc4ccc(C)cc4)cc3)n2)C1 (stereo not shown) [Compound 81, 6-(1-acryloylpyrrolidin-3-yl)-2-(4-(p-tolyloxy)phenoxy)nicotinamide]",< 100
20,"C=CC(=O)N[C@H]1CCN(c2ccc(C(N)=O)c(Nc3ccc(F)cc3)n2)C1 [Compound 48, 6-((S)-3-Acryloylamino-pyrrolidin-1-yl)-2-(4-fluoro-phenylamino)-nicotinamide]",< 100

# Second part, the molecule after the results:
row,IC50 [nM],Compound
1,> 5000,"C=CC(=O)N[C@H]1CCN(c2ncc(C(N)=O)cc2-c2ccc(Oc3ccccc3)cc2)C1 [Compound 170, 6-((S)-3-Acryloylamino-pyrrolidin-1-yl)-5-(4-phenoxy-phenyl)-nicotinamide]"
2,1000 to 5000,"N#CN1CCC(Nc2cnc(Oc3ccc(Oc4ccc(F)cc4F)cc3)c(C(N)=O)c2)C1 (stereo not shown) [Compound 250, 5-[(1-cyanopyrrolidin-3-yl)amino]-2-[4-(2,4-difluorophenoxy)phenoxy]pyridine-3-carboxamide]"
3,> 5000,"N#CN1CCC[C@@H](c2cnc(Oc3ccc(Oc4ccc(F)cc4F)cc3)c(C(N)=O)c2)C1 [Compound 249, 5-[(3S)-1-cyanopiperidin-3-yl]-2-[4-(2,4-difluorophenoxy)phenoxy]pyridine-3-carboxamide]"
4,100 to 1000,"C=CC(=O)N[C@@H]1CCN(c2ncc(C(N)=O)c(N)n2)C1 [Compound 144, 2-((R)-3-Acryloylamino-pyrrolidin-1-yl)-4-amino-pyrimidine-5-carboxylic acid amide]"
5,> 5000,"N#CN1CC2(CC(Nc3ncc(C(N)=O)c(Oc4ccc(Oc5ccccc5)cc4)n3)C2)C1 [Compound 242, 2-[(2-cyano-2-azaspiro[3.3]heptan-6-yl]amino)-4-(4-phenoxyphenoxy)pyrimidine-5-carboxamide]"
6,> 5000,"C/C=C/C(=O)NC1CCN(c2cnc(Oc3ccc(Oc4ccccc4)cc3)c(C(N)=O)c2)CC1 [Compound 200, 4-((E)-But-2-enoylamino)-6′-(4-phenoxy-phenoxy)-3,4,5,6-tetrahydro-2H-[1,3′]bipyridinyl-5′-carboxylic acid amide]"
7,1000 to 5000,"N#CN1CCC[C@H](c2cnc(Oc3ccc(Oc4ccc(F)cc4F)cc3)c(C(N)=O)c2)C1 [Compound 248, 5-[(3R)-1-cyanopiperidin-3-yl]-2-[4-(2,4-difluorophenoxy)phenoxy]pyridine-3-carboxamide]"
8,100 to 1000,"C=CC(=O)N1CC2CN(c3cnc(Oc4ccc(Oc5cccc(F)c5)cc4)c(C(N)=O)c3)CC2C1 (stereo not shown) [Compound 238, 5-(5-Acryloyl-hexahydro-pyrrolo[3,4-c]pyrrol-2-yl)-2-[4-(3-fluoro-phenoxy)-phenoxy]-nicotinamide]"
9,100 to 1000,C=CC(=O)N1CCCC(Nc2cnc(Oc3ccc(Oc4cccc(F)c4)cc3)c(C(N)=O)c2)C1 (stereo not shown) [Compound 251]
10,100 to 1000,"C=CC(=O)N1CCN(c2nc(N(C)c3cccc(C)c3)ccc2C(N)=O)CC1 [Compound 158, 2-(4-Acryloyl-piperazin-1-yl)-6-(methyl-m-tolyl-amino)-nicotinamide]"
11,< 100,"C=CC(=O)N1CCC(Nc2cnc(Oc3ccc(Oc4ccccc4)cc3)c(C(N)=O)c2)C1 (stereo not shown) [Compound 201, 5-(1-Acryloyl-pyrrolidin-3-ylamino)-2-(4-phenoxy-phenoxy)-nicotinamide]"
12,1000 to 5000,"C=CC(=O)N1CCC2(CC(Nc3ncc(C(N)=O)c(Oc4ccc(Oc5ccccc5)cc4)n3)C2)C1 (stereo not shown) [Compound 182, 2-((6-acryloyl-6-azaspiro[3.4]octan-2-yl)amino)-4-(4-phenoxyphenoxy)pyrimidine-5-carboxamide]"
13,< 100,"C=CC(=O)N[C@H]1CCN(c2nc(Nc3ccc(NC(=O)C(C)(C)C)cc3)ccc2C(N)=O)C1 [Compound 156, 2-((S)-3-Acryloylamino-pyrrolidin-1-yl)-6-[4-(2,2-dimethyl-propionylamino)-phenylamino]-nicotinamide]"
14,> 5000,"C/C=C/C(=O)NC1CCCN(c2cnc(Oc3ccc(Oc4ccccc4)cc3)c(C(N)=O)c2)C1 (stereo not shown) [Compound 213, 3-((E)-But-2-enoylamino)-6′-(4-phenoxy-phenoxy)-3,4,5,6-tetrahydro-2H-[1,3′]bipyridinyl-5′-carboxylic acid amide]"
15,1000 to 5000,"C=CC(=O)NC1CCCN(c2cnc(Oc3ccc(Oc4cccc(F)c4)cc3)c(C(N)=O)c2)C1 (stereo not shown) [Compound 220, 3-Acryloylamino-6′-[4-(3-fluoro-phenoxy)-phenoxy]-3,4,5,6-tetrahydro-2H-[1,3′]bipyridinyl-5′-carboxylic acid amide]"
16,100 to 1000,C=CC(=O)NC1CCN(c2cnc(Oc3ccc(Oc4ccccc4)cc3)c(C(N)=O)c2)CC1 [Compound 197]
